Source: patent US8211883B2, “Topical delivery of phthalocyanines” (priority 2004, dated 2012)

What was measured:
[1] = test system: Chinese hamster V79-379 lung fibroblasts; experiment: Clonogenic cell survival of V79 cells after photodynamic treatment; format: cell-based; settings: for LD 90 (light dosage that kills 90% of cells): 18 hours, 675 nm red light; for CF10(AIPcCI)/CF10 (Pc): CF10 = product of intracellular concentration and fluence reducing survival to 10%; for F10(AIPcCI)/F10 (Pc): F10 = fluence reducing cell survival to 10%
Summary of the method: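 V79 cells exposed to 0.5 or 1.0 μM phthalocyanine, then irradiated about 18 h later with increasing fluences of broad-band red light (600 nm high-pass filter). Survival scored as colonies of ≥50 cells. F10 taken from survival curves; CF10 from survival against intracellular concentration × fluence; 1 μM AlPcCl run as reference.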

L5178Y cells = experiment: Induction of apoptosis (DNA ladder) in L5178Y cells after PDT; format: cell-based, Mouse; settings: for C × F Ld90, Minimum Demonstrated Condition to Induce Apoptosis: product of concentration and fluence
[2] = test system: RIF-1 (radiation-induced fibrosarcoma) tumors; experiment: PDT of RIF-1 implanted tumors; format: in vivo, C3H/HeN mice; parameters: key to Tumor Responses at 24 hours: complete: no evidence of any tumor mass in any animal; only the scar from the photodynamic therapy was evident.; near complete: evidence of any tumor mass in four or five animals; only some tumor mass in one or two animals.; substantial: a significant tumor shrinkage occurred in all animals. In some animals the tumor response was complete, yet in others the response was not complete.; moderate: some tumor shrinkage was evident in some animals. In animals with some tumor shrinkage, scar formation was evident.; slight: some tumor decrease occurred in one or two mice; settings: for Tumor Responses at 24 hours / Doubling Time of Initial Tumor Volume after PDT: 1 mg/kg in corn oil, 675 nm; for Tumor Responses at 24 hours: 135 J/cm^2, light 24 h after dosing; for Doubling Time of Initial Tumor Volume after PDT: 135 J/cm^2, controls 4 days
[3] = 0.5 μM, VII# preplated data only, XXI* not totally soluble at 0.5 mM

Row | SMILES | LD 90 (light dosage that kills 90% of cells) ([1]; 1 μM) [kj/m^2] | Fluence, Minimum Demonstrated Condition to Induce Apoptosis (L5178Y cells; 0.5 μM) [kJ/m^2] | C × F Ld90, Minimum Demonstrated Condition to Induce Apoptosis (L5178Y cells; 0.5 μM) [kJ/m^2] | Fluence, Minimum Demonstrated Condition to Induce Apoptosis (L5178Y cells; 1.0 μM) [kJ/m^2] | C × F Ld90, Minimum Demonstrated Condition to Induce Apoptosis (L5178Y cells; 1.0 μM) [kJ/m^2] | Tumor Responses at 24 hours [2] | Doubling Time of Initial Tumor Volume after PDT [2] [days] | LD 90 (light dosage that kills 90% of cells) [1, 3] [kj/m^2] | CF10(AIPcCI)/CF10 (Pc) ([1]; 0.5 μM) | F10(AIPcCI)/F10 (Pc) ([1]; 0.5 μM) | CF10(AIPcCI)/CF10 (Pc) ([1]; 1.0 μM) | F10(AIPcCI)/F10 (Pc) ([1]; 1.0 μM) | Fluence, Minimum Demonstrated Condition to Induce Apoptosis (L5178Y cells; 0.4 μM) [kJ/m^2] | C × F Ld90, Minimum Demonstrated Condition to Induce Apoptosis (L5178Y cells; 0.4 μM) [kJ/m^2] | Histological examination of treated tumors ([2]; RIF-1 tumors after PDT)
1 | CCN(CCC[Si](C)(C)O[Si]1(O[Si](C)(C)CCCN(CC)CCN(C)C)n2c3c4ccccc4c2N=C2N=C(N=c4c5ccccc5c(n41)=NC1=NC(=N3)c3ccccc31)c1ccccc12)CCN(C)C [Compound XVIII, SiPc[OSi(CH3)2(CH2)3N(CH2CH3)(CH2)2N(CH3)2]2] | 7 | 10.0 | 5.0 | 3.0 | 3.0 | near complete | 12 |  |  |  |  |  |  |  | 
2 | CN(C)CCC[Si](C)(C)O[Si]1(O)n2c3c4ccccc4c2N=C2N=C(N=c4c5ccccc5c(n41)=NC1=NC(=N3)c3ccccc31)c1ccccc12 (stereo not shown) [Compound IV, HOSiPcOSi(CH3)2(CH2)3N(CH3)2] |  |  |  |  |  | near complete | 16 | 4 | 3.9 | 1.85 | 3.5 | 4.25 | 3.0 | 1.2 | presence of apoptotic bodies in the tumor
3 | CN(C)CCC[Si](C)(C)O[Si]1(O[Si](C)(C)CCCN(C)C)n2c3c4ccccc4c2N=C2N=C(N=c4c5ccccc5c(n41)=NC1=NC(=N3)c3ccccc31)c1ccccc12 [Compound XII, SiPc[OSi(CH3)2(CH2)3N(CH3)2]2] |  |  |  |  |  | complete | 20 | 3.3 |  |  |  |  | 3.0 | 1.2 | 
